Measurements: US5869469A, “Phosphonocarboxylate compounds for treating amyloidosis” (Queen's University at Kingston, priority 1997, dated 1999)
Where a name gives a salt, the structure may show the parent alone.

Key:
Aβ peptide = experiment: in vitro circular dichroism (CD) assay of β-sheet secondary structure formation; conditions: Aβ peptide with test compound in Tris-HCl buffer pH 7, incubated 0 or 24 hours at 37° C., CD at 25° C.
Text: It is known that amyloidogenic peptides or proteins which have formed amyloid deposits or plaques have a significant amount of β-sheet secondary structure, while the unaggregated peptide or protein generally has less β-sheet structure. It is believed that the ability of a candidate therapeutic compound to prevent the formation of β-sheet secondary structure in vitro may be correlated with the ability of the compound to inhibit amyloidogenesis in vivo. Accordingly, phosphonate compounds were assayed for ability to prevent the formation of β-sheet secondary structure in an in vitro circular dichroism (CD) assay.
Aβ is a 40 amino acid protein associated with Alzheimer's disease. Aβ peptide was prepared and purified as described in Fraser, P. E. et al., Biochemistry 31, 10716 (1992). Briefly, the peptide was synthesized by standard solid-phase techniques and purified by HPLC according to well known procedures.
All CD experiments were performed on a commercially available instrument. The cell was maintained at 25° C. using a circulating water bath. Computer-averaging of traces was performed to improve signal-to-noise ratios. The solvent signal was subtracted. CD experiments were performed for each test compound according to the following procedure:
A stock solution of purified peptide was made by dissolving the peptide in phosphate-buffered saline (PBS) to a concentration of 2 mg/ml. […]

amyloid peptide = amyloid peptide solubility assay (overnight incubation, centrifugation, soluble peptide determination); conditions: compound and amyloid peptide incubated together overnight, then centrifugation; preliminary result
[1] = system: cortical/hippocampal neuronal cultures; experiment: neurotoxicity in cortical/hippocampal neuronal cultures; format: cell-based; conditions: concentrations ranging from 10^-7 M to 10^-4 M

Row | Compound | β-sheet formation (minimum at 218 nm in CD spectrum versus control) (Aβ peptide) | effect on amyloid peptide solubility (amount of soluble peptide) (amyloid peptide) | neurotoxicity [1]
1 | O=C(O)CCOCCP(=O)(O)O [2-carboxyethoxyethylphosphonic acid] | did not appear to prevent β-pleated sheet formation | – | –
2 | O=C(O)P(=O)(O)O [Phosphonoformate sodium salt, Trisodium phosphonoformate] | significantly and reproducibly reduce the amount of β-sheet formation | little effect on amyloid peptide solubility | no significant toxicity
